Several values for one entry are separate records, joined by “and”; a condition that tells them apart may be missing. Equal entries are not always repeated. Records with an inconclusive call do not appear.
System: MX-1 breast xenograft, nude mice, tumor weight T/C
Test: NCI In Vivo Anticancer Drug Screen. Data for tumor model Human Mammary Carcinoma MX-1 Xenograft (intrarenal inoculation) in NU/NU Swiss (nude) mice
Settings: endpoint: mean tumor weight change, higher = larger tumour
Summary of the method: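 Mice carrying the implanted tumor receive either test agent or vehicle. Tumor size or survival is then recorded for both groups. Results are stated as the treated-to-control quotient.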

[1] = dose: 300.0 mg/kg/injection, schedule: Q04DX003 (sc), vehicle: saline with Tween-80
[2] = dose: 25.0 mg/kg/injection, schedule: Q01DX010 (sc), vehicle: saline
[3] = dose: 150.0 mg/kg/injection, schedule: Q04DX003 (sc), vehicle: Klucel (hydroxypropylcellulose) (HPC)

**Q.** With `CC[C@@]1(O)C(=O)OCc2c1cc1n(c2=O)Cc2cc3ccccc3nc2-1` as the compound, how does the T/C (dose: 1.0 mg/kg/injection, schedule: Q04DX003 (sc), vehicle: saline with Tween-80) read?
**A.** 100 % of control

**Q.** And the T/C (dose: 2.0 mg/kg/injection, schedule: Q04DX003 (sc), vehicle: saline with Tween-80)?
**A.** 58 % of control

**Q.** And the T/C (dose: 4.0 mg/kg/injection, schedule: Q04DX003 (sc), vehicle: saline with Tween-80)?
**A.** 23 % of control

**Q.** What about the T/C (dose: 8.0 mg/kg/injection, schedule: Q04DX003 (sc), vehicle: saline with Tween-80) of the same compound?
**A.** 11 % of control

**Q.** For `N=C(N)SCc1cccc2c(=O)cc(-c3ccccc3)oc12`, which T/C (dose: 300.0 mg/kg/injection, schedule: Q04DX003 (sc), vehicle: suspension in saline) is on record?
**A.** 110 % of control

**Q.** For `CCCCc1ccc(-n2c(C)c(COC(=O)NC)c(COC(=O)NC)c2C)cc1`, which T/C (dose: 12.5 mg/kg/injection, schedule: Q01DX010 (sc), vehicle: Klucel (hydroxypropylcellulose) (HPC)) is on record?
**A.** 114 % of control

**Q.** And the T/C (dose: 25.0 mg/kg/injection, schedule: Q01DX010 (sc), vehicle: Klucel (hydroxypropylcellulose) (HPC))?
**A.** 84 % of control

**Q.** What about the T/C (dose: 50.0 mg/kg/injection, schedule: Q01DX010 (sc), vehicle: Klucel (hydroxypropylcellulose) (HPC)) of the same compound?
**A.** 34 % of control

**Q.** What about the T/C (dose: 100.0 mg/kg/injection, schedule: Q01DX010 (sc), vehicle: Klucel (hydroxypropylcellulose) (HPC)) of the same compound?
**A.** 77 % of control

**Q.** Which T/C (dose: 50.0 mg/kg/injection, schedule: Q01DX010 (sc), vehicle: water) does the source give for `Cn1cnc([N+](=O)[O-])c1[Se]c1nc(N)nc2nc[nH]c12` here?
**A.** 71 % of control

**Q.** What does the source list for `CCN(CC)c1ccc2[nH]c3c(C(N)=O)cc(=O)c(=O)c=3oc2c1`?
**A.** T/C (dose: 150.0 mg/kg/injection, schedule: Q04DX003 (sc), vehicle: saline with Tween-80): 88 % of control; T/C [1]: 84 % of control; T/C (dose: 1200.0 mg/kg/injection, schedule: Q04DX003 (sc), vehicle: saline with Tween-80): 101 % of control

**Q.** Which results are given for `C[CH2][Sn]([CH2]C)([CH2]C(=O)OC)[CH2]C(=O)OC`?
**A.** T/C (dose: 12.5 mg/kg/injection, schedule: Q04DX003 (sc), vehicle: saline with Tween-80): 79 % of control; T/C (dose: 25.0 mg/kg/injection, schedule: Q04DX003 (sc), vehicle: saline with Tween-80): 116 % of control

**Q.** Which T/C [2] does the source give for `Nc1cc2[nH]cnc2c(=O)[nH]1` here?
**A.** 46 % of control

**Q.** And the T/C (dose: 50.0 mg/kg/injection, schedule: Q01DX010 (sc), vehicle: saline)?
**A.** -36 % of control

**Q.** And the T/C (dose: 50.0 mg/kg/injection, schedule: Q01DX010 (sc), vehicle: suspension in saline)?
**A.** 9 % of control

**Q.** And the T/C (dose: 50.0 mg/kg/injection, schedule: Q04DX003 (sc), vehicle: suspension in saline)?
**A.** 95 % of control

**Q.** What about the T/C (dose: 100.0 mg/kg/injection, schedule: Q01DX010 (sc), vehicle: saline) of the same compound?
**A.** -25 % of control and -11 % of control

**Q.** What about the T/C (dose: 100.0 mg/kg/injection, schedule: Q01DX010 (sc), vehicle: suspension in saline) of the same compound?
**A.** -28 % of control

**Q.** And the T/C (dose: 100.0 mg/kg/injection, schedule: Q04DX003 (sc), vehicle: suspension in saline)?
**A.** 83 % of control and 100 % of control

**Q.** And the T/C (dose: 200.0 mg/kg/injection, schedule: Q01DX010 (sc), vehicle: saline)?
**A.** -31 % of control

**Q.** What about the T/C (dose: 200.0 mg/kg/injection, schedule: Q01DX010 (sc), vehicle: suspension in saline) of the same compound?
**A.** -89 % of control

**Q.** What about the T/C (dose: 200.0 mg/kg/injection, schedule: Q04DX003 (sc), vehicle: suspension in saline) of the same compound?
**A.** 8 % of control and 31 % of control

**Q.** What about the T/C (dose: 400.0 mg/kg/injection, schedule: Q04DX003 (sc), vehicle: suspension in saline) of the same compound?
**A.** 12 % of control and 18 % of control

**Q.** And the T/C (dose: 800.0 mg/kg/injection, schedule: Q04DX003 (sc), vehicle: suspension in saline)?
**A.** 8 % of control

**Q.** How did the T/C (dose: 1.5 mg/kg/injection, schedule: Q04DX003 (sc), vehicle: suspension in saline) turn out when `CCC1(O)CC2CN(CCc3c([nH]c4ccccc34)C(C(=O)OC)(c3cc4c(cc3OC)N(C)C3C(O)(C(=O)NCCSSCCNC(=O)C5(O)C(O)C6(CC)C=CCN7CCC8(c9cc(C%10(C(=O)OC)CC%11CN(CCc%12c%10[nH]c%10ccccc%12%10)CC(O)(CC)C%11)c(OC)cc9N(C)C58)C76)C(O)C5(CC)C=CCN6CCC43C65)C2)C1` (stereo unspecified) was run?
**A.** 101 % of control

**Q.** And the T/C (dose: 3.0 mg/kg/injection, schedule: Q04DX003 (sc), vehicle: suspension in saline)?
**A.** 102 % of control

**Q.** And the T/C (dose: 6.0 mg/kg/injection, schedule: Q04DX003 (sc), vehicle: suspension in saline)?
**A.** 70 % of control

**Q.** What about the T/C (dose: 12.0 mg/kg/injection, schedule: Q04DX003 (sc), vehicle: saline) of the same compound?
**A.** 1 % of control

**Q.** What about the T/C (dose: 12.0 mg/kg/injection, schedule: Q04DX003 (sc), vehicle: suspension in saline) of the same compound?
**A.** 73 % of control

**Q.** `N=C(N)Sc1ccccn1` was tested. Which T/C [2] did it give?
**A.** 182 % of control

**Q.** Which T/C (dose: 4.69 mg/kg/injection, schedule: Q04DX003 (sc), vehicle: saline with Tween-80) does the source give for `C1CN2CCC1CC2` here?
**A.** 112 % of control

**Q.** And the T/C (dose: 9.38 mg/kg/injection, schedule: Q04DX003 (sc), vehicle: saline with Tween-80)?
**A.** 93 % of control

**Q.** `CN(C)N=Nc1cccc(C(N)=O)c1` was tested. Which T/C (dose: 25.0 mg/kg/injection, schedule: Q04DX003 (sc), vehicle: Klucel (hydroxypropylcellulose) (HPC)) did it give?
**A.** 100 % of control

**Q.** And the T/C (dose: 50.0 mg/kg/injection, schedule: Q04DX003 (sc), vehicle: Klucel (hydroxypropylcellulose) (HPC))?
**A.** 52 % of control and 59 % of control and 64 % of control

**Q.** What about the T/C [3] of the same compound?
**A.** 4 % of control

**Q.** With `O=C[C@@H](CO)O[C@H](C=O)n1cnc2c(=O)[nH]cnc21` as the compound, how does the T/C (dose: 100.0 mg/kg/injection, schedule: Q04DX003 (sc), vehicle: saline with Tween-80) read?
**A.** 41 % of control

**Q.** And the T/C (dose: 200.0 mg/kg/injection, schedule: Q04DX003 (sc), vehicle: saline with Tween-80)?
**A.** 39 % of control and 63 % of control

**Q.** What about the T/C [1] of the same compound?
**A.** 47 % of control

**Q.** What does the source list for `C1CN(P2(N3CC3)=NP(N3CC3)(N3CC3)=NP(N3CC3)(N3CC3)=N2)CCO1` (stereo unspecified)?
**A.** T/C (dose: 12.5 mg/kg/injection, schedule: Q04DX003 (sc), vehicle: saline): 36 % of control; T/C (dose: 25.0 mg/kg/injection, schedule: Q04DX003 (sc), vehicle: saline): 9 % of control; T/C (dose: 50.0 mg/kg/injection, schedule: Q04DX003 (sc), vehicle: saline): -77 % of control and -68 % of control (2×); T/C (dose: 100.0 mg/kg/injection, schedule: Q04DX003 (sc), vehicle: saline): -93 % of control

**Q.** Which T/C (dose: 20.0 mg/kg/injection, schedule: Q04DX003 (sc), vehicle: saline + alcohol) does the source give for `C=C(C)C(=O)OC1C/C(CO)=C\C(O)C/C(C)=C/C2OC(=O)C(=C)C21` (stereo unspecified) here?
**A.** 55 % of control

**Q.** And the T/C (dose: 40.0 mg/kg/injection, schedule: Q04DX003 (sc), vehicle: saline + alcohol)?
**A.** 106 % of control

**Q.** What about the T/C (dose: 80.0 mg/kg/injection, schedule: Q04DX003 (sc), vehicle: saline + alcohol) of the same compound?
**A.** 66 % of control

**Q.** With `CCN(C)N=Nc1ccc(C(N)=O)cc1` as the compound, how does the T/C [3] read?
**A.** 38 % of control

**Q.** What about the T/C (dose: 300.0 mg/kg/injection, schedule: Q04DX003 (sc), vehicle: Klucel (hydroxypropylcellulose) (HPC)) of the same compound?
**A.** 21 % of control

**Q.** With `Cc1cc(NS(=O)(=O)c2ccc(N=Nc3cc(N=Nc4ccc(S(=O)(=O)Nc5cc(C)nc(C)n5)cc4)c4c(NC(=O)C(Cl)Cl)cccc4c3OC(=O)C(Cl)Cl)cc2)nc(C)n1` (tested in a mixture with another compound) as the compound, how does the T/C (dose: 2400.0 mg/kg/injection, schedule: Q04DX003 (sc), vehicle: suspension in saline) read?
**A.** 112 % of control

**Q.** For `N[C@@H](Cc1c[nH]c2ccccc12)C(=O)Nc1nncs1`, which T/C (dose: 300.0 mg/kg/injection, schedule: Q04DX003 (ip), vehicle: suspension in saline) is on record?
**A.** 69 % of control

**Q.** And the T/C (dose: 600.0 mg/kg/injection, schedule: Q04DX003 (ip), vehicle: suspension in saline)?
**A.** 50 % of control

**Q.** Which T/C (dose: 50.0 mg/kg/injection, schedule: Q01DX010 (sc), vehicle: saline with Tween-80) does the source give for `CCN(CC)CCCC(C)Nc1c2ccc(Cl)cc2nc2ccc(OC)cc12` (stereo unspecified) here?
**A.** 158 % of control

**Q.** What about the T/C (dose: 100.0 mg/kg/injection, schedule: Q01DX010 (sc), vehicle: saline with Tween-80) of the same compound?
**A.** 110 % of control

**Q.** For `COc1cc2cc[n+](C)c(Cc3ccccc3)c2cc1OC`, which T/C (dose: 18.75 mg/kg/injection, schedule: Q04DX003 (sc), vehicle: Klucel (hydroxypropylcellulose) (HPC)) is on record?
**A.** 90 % of control

**Q.** And the T/C (dose: 37.5 mg/kg/injection, schedule: Q04DX003 (sc), vehicle: Klucel (hydroxypropylcellulose) (HPC))?
**A.** 115 % of control

**Q.** And the T/C (dose: 75.0 mg/kg/injection, schedule: Q04DX003 (sc), vehicle: Klucel (hydroxypropylcellulose) (HPC))?
**A.** 58 % of control

**Q.** How did the T/C (dose: 35.0 mg/kg/injection, schedule: Q01DX010 (sc), vehicle: Klucel (hydroxypropylcellulose) (HPC)) turn out when `C[C@]12CCC(=O)C(O)=C1CC[C@@H]1[C@@H]2CC[C@]2(C)C(=O)CC[C@@H]12` was run?
**A.** 223 % of control

**Q.** What about the T/C (dose: 70.0 mg/kg/injection, schedule: Q01DX010 (sc), vehicle: Klucel (hydroxypropylcellulose) (HPC)) of the same compound?
**A.** 112 % of control

**Q.** What about the T/C (dose: 280.0 mg/kg/injection, schedule: Q01DX010 (sc), vehicle: Klucel (hydroxypropylcellulose) (HPC)) of the same compound?
**A.** 88 % of control

Source: PubChem BioAssay AID296 (DTP/NCI, 2004)
